Assay results from patent publication US7521533B2, “Tryptase polypeptide and uses thereof” (priority 2002, dated 2009).
“Also recorded” adds a separate entry of the source.

Test: Cleavage of trypsin-susceptible pNA chromogenic substrate, reverse-phase HPLC
Assay type: biochemical
Conditions: for ability to cleave D-Ile-Phe-Lys pNA / ability to cleave N-Benzoyl-Pro-Phe-Arg-pNA / ability to cleave N-p-Tosyl-Gly-Pro-Lys 4-pNA: ~2 μg enzyme, 10 μg substrate, 37° C. 2 hrs, 100 mM HEPES pH7.5 10% glycerol, no exogenous heparin
Procedure: The enzymatic activity of recombinant δ tryptase was evaluated by testing its ability to cleave a panel of three trypsin-susceptible p-nitroanilide (pNA) chromogenic substrates; N-Benzoyl-Pro-Phe-Arg-pNA, D-Ile-Phe-Lys pNA, and N-p-Tosyl-Gly-Pro-Lys 4-pNA (Sigma-Adrich, St Louis, Mo.) and was compared to that of rαII tryptase, and commercially available native human lung tryptase (ICN, Costa Mesa, Calif.) and recombinant human lung βII tryptase (Promega, Madison, Wis.). Pro-δ tryptase (ie prior to removal of the EK susceptible activation peptide), recombinant EK alone, and buffer alone acted as negative controls. Approximately equal amounts (˜2 μg) of the enzymes were incubated with each substrate (10 μg) at 37° C. for 2 hrs, in 100 mM HEPES pH7.5 10% glycerol (total reaction volume=50 μl), and then analysed by HPLC using a reverse-phase column (4.6×50 […] RP18 Xterra, Waters, Bedford, Mass.). In this initial investigation no exogenous heparin was added. Substrate cleavage was determined by the detection of new peaks representing the separated peptide and nitroanilide moieties. The amount of substrate cleaved was estimated by measuring the area under the HPLC peak that corresponded to the liberated peptide moiety using Delta T Scan software version 2.04 (Delta T Devices Ltd, Cambridge, UK). The retention time of the liberated nitroanilide was constant and was experimentally determined to be 2.67 mins.

Substance	ability to cleave D-Ile-Phe-Lys pNA	ability to cleave N-Benzoyl-Pro-Phe-Arg-pNA	ability to cleave N-p-Tosyl-Gly-Pro-Lys 4-pNA	amount of D-Ile-Phe-Lys pNA substrate cleaved, as much as that cleaved by rβII tryptase (area under HPLC peak of liberated peptide moiety, relative to rβII tryptase)
pro-rδ tryptase: Recombinant δ tryptase prior to removal of the EK susceptible activation peptide; negative control	No substrate cleavage was detected			
rβII tryptase: Commercially available recombinant human lung βII tryptase (Promega) [reference compound]	cleave all three substrates	cleave all three substrates	cleave all three substrates	
rδ tryptase: Recombinant human δ tryptase expressed in bacterial cells, refolded, mature form generated by enterokinase cleavage	able to cleave; also recorded: cleaves	ineffective	ineffective	approximately 12%
